# Measurements from patent US7704993B2, “Benzazepine derivatives and methods of prophylaxis or treatment of 5ht2c receptor associated diseases” (Arena Pharmaceuticals, Inc., priority 2003, dated 2010).
# Legend:
# human 5HT2C receptor = molecular target: T1, human 5HT2C receptor (Homo sapiens, UniProt P28335); experiment: Intracellular IP3 Accumulation Assay; type: cell-based; settings: HEK293 cells transfected with human 5HT2C receptor cDNA; read-out: 5HT2C (IC50) IP Accumulation Assay
# T1 construct: expressed in transfected cells; host or cells: HEK293 cells, transient transfection with lipofectamine
# T1 sequence (P28335 33-458): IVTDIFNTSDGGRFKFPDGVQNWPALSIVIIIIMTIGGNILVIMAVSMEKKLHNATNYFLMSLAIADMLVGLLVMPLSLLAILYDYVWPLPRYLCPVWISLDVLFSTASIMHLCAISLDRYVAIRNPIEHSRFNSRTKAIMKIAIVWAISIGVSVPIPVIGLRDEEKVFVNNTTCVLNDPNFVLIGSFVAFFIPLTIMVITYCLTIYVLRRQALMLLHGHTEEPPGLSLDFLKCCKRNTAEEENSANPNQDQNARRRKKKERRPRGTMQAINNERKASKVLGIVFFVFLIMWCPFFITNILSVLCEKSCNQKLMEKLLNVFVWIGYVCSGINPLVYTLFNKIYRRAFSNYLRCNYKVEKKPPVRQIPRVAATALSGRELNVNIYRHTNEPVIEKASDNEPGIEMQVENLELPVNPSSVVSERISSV
# Description: Intracellular IP3 Accumulation Assay:
# HEK293 cells were transfected in 15 cm sterile dishes with or without (control) 16 ug of human 5HT2C receptor cDNA [for example see, Saltzman, A. G., et al. Biochem. Biophys. Res. Commun. 181, 1469-1478 (1991)] using 25 ul of lipofectamine. Cells were then incubated for 3-4 hours at 37° C./5% CO2 and then transfection media was removed and replaced with 100 ul of DMEM. Cells were then plated onto 100 cm sterile dishes. The next day cells were plated into 96 well PDL microtiter plates at a density of 55 K/0.2 ml. Six hours latter, media was exchanged with [^3H]inositol (0.25 uCi/well) in inositol free DMEM and plates were incubated at 37° C./5% CO2 overnight. The next day, wells were aspirated and 200 ul of DMEM containing test compound, 10 uM pargyline, and 10 mM LiCl was added to appropriate wells. Plates were then incubated at 37° C./5% CO2 for three hours followed aspiration and by addition of fresh ice cold stop solution (1M KOH, 19 mM Na-borate, 3.8 mM EDTA) to each well. Plates were kept on ice for 5-10 min and the wells were neutralized by addition of 200 ul of fresh ice cold neutralization solution (7.5% HCl). Plates were then frozen until further processing is desired. The lysate was then transferred into 1.5 ml Eppendorf tubes and 1 ml of chloroform/methanol (1:2) was added/tube. […]
# [1] = test system: amyloid precursor protein (APPs) secretion / Aβ production; settings: guinea pigs, repeat administration; cited from earlier work
Compound,IC50 (human 5HT2C receptor) [nM],amyloid precursor protein (APPs) secretion [1],levels of Aβ production in vivo [1]
"CC1CNCCc2c(Cl)cc(Cl)cc21 (racemic) [Compound 1, (R,S) 6,8-Dichloro-1-methyl-2,3,4,5-tetrahydro-1H-3-benzazepine]",11.7,,
"CC1CNCCc2ccc(Cl)c(F)c21 (racemic) [Compound 3, (R,S) 8-Chloro-9-fluoro-1-methyl-2,3,4,5-tetrahydro-1H-3-benzazepine]",24.5,,
"C[C@H](N)Cc1cccc(C(F)(F)F)c1 [dexnorfenfluramine (DEXNOR), dexnorfenfluramine]",,stimulated,reducing
